Assays:
[1] = test system: black bean aphids (Aphis fabae); assay: Black bean aphid test: plants and aphids immersed in solution of the formulated preparation; format: in vivo; details: read-out: mortality of the aphids
Procedure: Pregerminated field bean seeds (Vicia faba) with seminal roots were transferred into amber glass bottles filled with tap water and then populated with approximately 100 black bean aphids (Aphis fabae). The plants and aphids were then immersed for 5 seconds in an aqueous solution of the formulated preparation to be tested. After the solution had been allowed to run off, the plants and animals were stored in a controlled-environment cabinet (16 hours light/day, 25° C., 40-60% atmospheric humidity). After storage for 3 and 6 days, the effect of the preparation on the aphids was determined.

[2] = test system: black bean aphids (Aphis fabae); assay: Black bean aphid root-systemic test: solution pipetted into the bottle holding the field bean roots; format: in vivo; details: read-out: mortality of the aphids owing to the root-systemic activity
Procedure: Pregerminated field bean seeds (Vicia faba) with seminal roots were transferred into amber glass bottles filled with tap water. Four milliliters of an aqueous solution of the formulated preparation to be tested were pipetted into the amber glass bottle. Then, the field bean was infested with approx. 100 black bean aphids (Aphis fabae). The plant and animals were then stored in a controlled-environment cabinet (16 hours light/day, 25° C., 40-60% atmospheric humidity). After storage for 3 and 6 days, the root-systemic action of the preparation on the aphids was determined. At a concentration of 300 ppm (based on active substance content), the preparations of Examples No. 1, 8, 20, 28, 30, 34, 36, 40, 52, 54, 56, 58, 118, 138, 146, 148, 154, 158, 176, 184, 368, 369, 370 caused 90-100% mortality of the aphids owing to the root-systemic activity.

FC(F)(F)c1ccncc1-c1nc(CC2OCCCO2)no1 [Example 8, 3-(1,3-Dioxan-2-ylmethyl)-5-(4-trifluoromethyl-3-pyridyl)-1,2,4-oxadiazole]
mortality at 300 ppm [1]: 90 to 100%
mortality at 300 ppm [2]: 90 to 100%

— patent US20020132813A1, “Heterocyclylalkylazole derivatives and their use as pesticides” (priority 2000, published 2002)
